Measurements: patent US20240116985A1, “STAPLED PEPTIDES AND METHODS THEREOF” (priority 2020, published 2024)
pIC50: −log10 of the molar value. Where two headings read alike, the source gives them in different places.

Columns and labels:
[1] = molecular target: T1, full-length beta-Catenin (Uniprot ID P35222) (Homo sapiens, UniProt P35222); assay: Fluorescence polarization IC50 (beta-catenin / 5FAM-TCF4 10-53 competition); assay type: binding
T1 construct: 10 nM full-length beta-Catenin (Uniprot ID P35222)
T1 sequence (P35222 1-781): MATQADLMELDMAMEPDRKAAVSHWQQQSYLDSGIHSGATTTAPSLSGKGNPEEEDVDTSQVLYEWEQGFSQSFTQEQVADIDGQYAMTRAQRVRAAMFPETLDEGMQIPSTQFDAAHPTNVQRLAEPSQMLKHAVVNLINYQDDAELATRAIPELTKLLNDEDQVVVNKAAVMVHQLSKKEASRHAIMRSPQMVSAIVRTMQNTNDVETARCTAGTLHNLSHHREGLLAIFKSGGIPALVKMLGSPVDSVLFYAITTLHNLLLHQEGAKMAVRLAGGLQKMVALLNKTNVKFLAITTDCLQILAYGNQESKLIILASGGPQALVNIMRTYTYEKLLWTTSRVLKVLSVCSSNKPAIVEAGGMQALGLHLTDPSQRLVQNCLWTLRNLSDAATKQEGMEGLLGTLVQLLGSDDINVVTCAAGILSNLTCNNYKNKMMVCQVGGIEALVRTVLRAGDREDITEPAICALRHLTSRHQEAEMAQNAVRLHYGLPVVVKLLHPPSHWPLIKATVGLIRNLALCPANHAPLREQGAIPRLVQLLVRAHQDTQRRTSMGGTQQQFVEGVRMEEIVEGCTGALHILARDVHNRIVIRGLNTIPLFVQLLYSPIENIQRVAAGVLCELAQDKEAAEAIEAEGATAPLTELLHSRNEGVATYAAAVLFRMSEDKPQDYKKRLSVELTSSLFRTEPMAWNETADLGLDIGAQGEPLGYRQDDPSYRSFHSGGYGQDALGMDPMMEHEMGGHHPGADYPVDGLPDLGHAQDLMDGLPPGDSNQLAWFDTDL

[2] = molecular target: T2, beta-catenin/TCF4 engagement (Homo sapiens, UniProt P35222); assay: Nano-BRET target engagement assay (B-cat-Halo & TCF4-Luc in HEK293 cells); assay type: cell-based
T2 construct: expressed in transfected cells; host or cells: HEK293
T2 sequence (P35222 1-781): T1 sequence (P35222 1-781)

[3] = fluorescence polarization; read-out: beta-Catenin FP IC50
[4] = absolute IC50; read-out: NanoBRET Abs IC50

Row | pIC50 [1, 3] | pIC50 [2, 4] | SMILES | pIC50 ([1]; read-out: beta-Catenin FP IC50; fluorescence polarization) | pIC50 ([2]; read-out: NanoBRET Abs IC50; absolute IC50)
1 | 7.47 | 5.19 | CC(=O)N1CCC[C@]12CC=CCCCC1(CCCC=CCCCOC(=O)N3CC[C@@](C(=O)N[C@@H](Cc4cccc(F)c4)C(=O)N[C@@H](Cc4csc5ccccc45)C(=O)N[C@@H](C)C(N)=O)(C3)NC(=O)[C@H](CC(C)C)NC(=O)[C@H](Cc3ccccc3)NC(=O)[C@H](C)NC(=O)[C@H](C)NC(=O)[C@H](Cc3cccc(C(=O)O)c3)NC(=O)[C@H](CC(=O)O)NC1=O)NC(=O)[C@H](CC(C)(C)C)NC(=O)[C@H](CC(=O)O)NC2=O (stereo partly drawn) [I-2261, Ac-PL3-Asp-Npg-B5-Asp-3COOHF-Ala-Ala-Phe-Leu-PyrS2-3FF-BztA-Ala-NH2] |  | 
2 | 7.74 | 5.43 | CC(=O)N1CCC[C@]12CC=CCCCC1(CCCC=CCCCOC(=O)N3CC[C@@](C(=O)N[C@@H](Cc4ccsc4)C(=O)N[C@@H](Cc4csc5ccccc45)C(=O)N[C@@H](C)C(N)=O)(C3)NC(=O)[C@H](CC(C)C)NC(=O)[C@H](Cc3ccc(F)cc3)NC(=O)[C@H](C)NC(=O)[C@H](C)NC(=O)[C@H](Cc3cccc(C(=O)O)c3)NC(=O)[C@H](CC(=O)O)NC1=O)NC(=O)[C@H](CC(C)(C)C)NC(=O)[C@H](CC(=O)O)NC2=O (stereo partly drawn) [I-2262, Ac-PL3-Asp-Npg-B5-Asp-3COOHF-Ala-Ala-4FF-Leu-PyrS2-3Thi-BztA-Ala-NH2] |  | 
3 | 7.33 | 5.37 | CC(=O)N1CCC[C@]12CC=CCCCC1(CCCC=CCCCOC(=O)N3CC[C@@](C(=O)N[C@@H](Cc4ccc(F)cc4)C(=O)N[C@@H](Cc4csc5ccccc45)C(=O)N[C@@H](C)C(N)=O)(C3)NC(=O)[C@H](CC(C)C)NC(=O)[C@H](Cc3ccccc3)NC(=O)[C@H](C)NC(=O)[C@H](C)NC(=O)[C@H](Cc3cccc(C(=O)O)c3)NC(=O)[C@H](CC(=O)O)NC1=O)NC(=O)[C@H](CC(C)(C)C)NC(=O)[C@H](CC(=O)O)NC2=O (stereo partly drawn) [I-2263, Ac-PL3-Asp-Npg-B5-Asp-3COOHF-Ala-Ala-Phe-Leu-PyrS2-4FF-BztA-Ala-NH2] |  | 
4 | 7.17 | < 4.70 | CC(=O)N1CC2CC1C(=O)N[C@@H](CC(=O)O)C(=O)N[C@@H](CC(C)(C)C)C(=O)NC1(CCCCCCCCOC(=O)N3CC[C@@](C(=O)N[C@@H](Cc4ccsc4)C(=O)N[C@@H](Cc4csc5ccccc45)C(=O)N[C@@H](CCC(N)=O)C(N)=O)(C3)NC(=O)[C@H](CC(C)C)NC(=O)[C@H](Cc3ccccc3)NC(=O)[C@H](C)NC(=O)[C@H](C)NC(=O)[C@H](CN(CC(=O)O)CC(F)(F)F)NC(=O)[C@H](CC(=O)O)NC1=O)CCCCCCCC(=O)O2 (stereo partly drawn) [I-2265, Ac-HypEs5-Asp-Npg-B5-Asp-TfeGA-Ala-Ala-Phe-Leu-PyrS2-3Thi-BztA-Gln-NH2] |  | 
5 | 7.37 | 5.52 | CC(=O)N1CCC[C@]12CC=CCCCC1(CCCC=CCCCOC(=O)N3CC[C@@](C(=O)N[C@@H](Cc4ccsc4)C(=O)N[C@@H](Cc4csc5ccccc45)C(=O)N[C@@H](CC(N)=O)C(=O)N[C@@H](C)C(=O)NC(C)(C)C(=O)N[C@@H](C)C(=O)NC(C)(C)C(=O)N[C@@H](C)C(N)=O)(C3)NC(=O)[C@H](CC(C)C)NC(=O)[C@H](Cc3ccccc3)NC(=O)[C@H](C)NC(=O)[C@H](C)NC(=O)[C@H](Cc3cccc(C(=O)O)c3)NC(=O)[C@H](CC(=O)O)NC1=O)NC(=O)[C@H](CC(C)(C)C)NC(=O)[C@H](CC(=O)O)NC2=O (stereo partly drawn) [I-2272, Ac-PL3-Asp-Npg-B5-Asp-3COOHF-Ala-Ala-Phe-Leu-PyrS2-3Thi-BztA-Asn-Ala-Aib-Ala-Aib-Ala-NH2] |  | 
6 | 6.97 | 5.21 | CC(=O)N1CCC[C@]12CC=CCCCC1(CCCC=CCCCOC(=O)N3CC[C@@](C(=O)N[C@@H](Cc4ccsc4)C(=O)N[C@@H](Cc4csc5ccccc45)C(=O)N[C@@H](CC(N)=O)C(=O)N[C@@H](C)C(=O)NC(C)(C)C(=O)N[C@@H](C)C(=O)NC(C)(C)C(=O)N[C@@H](C)C(=O)NC(C)(C)C(=O)N[C@@H](C)C(N)=O)(C3)NC(=O)[C@H](CC(C)C)NC(=O)[C@H](Cc3ccccc3)NC(=O)[C@H](C)NC(=O)[C@H](C)NC(=O)[C@H](Cc3cccc(C(=O)O)c3)NC(=O)[C@H](CC(=O)O)NC1=O)NC(=O)[C@H](CC(C)(C)C)NC(=O)[C@H](CC(=O)O)NC2=O (stereo partly drawn) [I-2273, Ac-PL3-Asp-Npg-B5-Asp-3COOHF-Ala-Ala-Phe-Leu-PyrS2-3Thi-BztA-Asn-Ala-Aib-Ala-Aib-Ala-Aib-Ala-NH2] |  | 
7 | 6.94 | 5.64 | CC(=O)N1CCC[C@]12CC=CCCCC1(CCCC=CCCCOC(=O)N3CC[C@@](C(=O)N[C@@H](Cc4ccsc4)C(=O)N[C@@H](Cc4csc5ccccc45)C(=O)N[C@@H](CC(N)=O)C(=O)N[C@@H](C)C(=O)N[C@@H](CC(C)C)C(=O)N[C@@H](CC(C)C)C(N)=O)(C3)NC(=O)[C@H](CC(C)C)NC(=O)[C@H](Cc3ccccc3)NC(=O)[C@H](C)NC(=O)[C@H](C)NC(=O)[C@H](Cc3cccc(C(=O)O)c3)NC(=O)[C@H](CC(=O)O)NC1=O)NC(=O)[C@H](CC(C)(C)C)NC(=O)[C@H](CC(=O)O)NC2=O (stereo partly drawn) [I-2277, Ac-PL3-Asp-Npg-B5-Asp-3COOHF-Ala-Ala-Phe-Leu-PyrS2-3Thi-BztA-Asn-Ala-Leu-Leu-NH2] |  | 
8 | 6.92 | 5.55 | CC(=O)N1CCC[C@]12CC=CCCCC1(CCCC=CCCCOC(=O)N3CC[C@@](C(=O)N[C@@H](Cc4ccsc4)C(=O)N[C@@H](Cc4csc5ccccc45)C(=O)N[C@@H](CC(N)=O)C(=O)N[C@@H](C)C(=O)N[C@@H](CC(C)C)C(=O)N[C@@H](CC(C)C)C(N)=O)(C3)NC(=O)[C@H](CC(C)C)NC(=O)[C@H](Cc3ccccc3)NC(=O)[C@H](C)NC(=O)[C@H](C)NC(=O)[C@H](Cc3cccc(C(=O)O)c3)NC(=O)[C@H](CC(=O)O)NC1=O)NC(=O)[C@H](CC(C)(C)C)NC(=O)[C@H](CC(=O)O)NC2=O (stereo partly drawn) [I-2278, Ac-PL3-Asp-Npg-B5-Asp-3COOHF-Ala-Ala-Phe-Leu-PyrS2-3Thi-BztA-Asn-Ala-Leu-Leu-NH2] |  | 
9 |  |  | CC(=O)N1CCC[C@]12CC=CCCCC1(CCCC=CCCCOC(=O)N3CC[C@@](C(=O)N[C@@H](Cc4ccsc4)C(=O)N[C@@H](Cc4csc5ccccc45)C(=O)N[C@@H](CC(N)=O)C(=O)N[C@@H](CC(C)C)C(=O)N[C@@H](CC(C)C)C(=O)N[C@@H](CC(C)C)C(=O)N[C@@H](CC(C)C)C(=O)N[C@@H](CC(C)C)C(N)=O)(C3)NC(=O)[C@H](CC(C)C)NC(=O)[C@H](Cc3ccccc3)NC(=O)[C@H](C)NC(=O)[C@H](C)NC(=O)[C@H](Cc3cccc(C(=O)O)c3)NC(=O)[C@H](CC(=O)O)NC1=O)NC(=O)[C@H](CC(C)(C)C)NC(=O)[C@H](CC(=O)O)NC2=O (stereo partly drawn) [I-2279, Ac-PL3-Asp-Npg-B5-Asp-3COOHF-Ala-Ala-Phe-Leu-PyrS2-3Thi-BztA-Asn-Leu-Leu-Leu-Leu-Leu-NH2] | 5.14 | < 4.70
10 | 6.86 | 5.37 | CC(=O)N1CCC[C@]12CC=CCCCC1(CCCC=CCCCOC(=O)N3CC[C@@](C(=O)N[C@@H](Cc4ccsc4)C(=O)N[C@@H](Cc4csc5ccccc45)C(=O)N[C@@H](CC(N)=O)C(=O)N[C@@H](C)C(=O)N[C@@H](CC(C)C)C(=O)N[C@@H](C)C(=O)N[C@@H](CC(C)C)C(=O)N[C@@H](C)C(N)=O)(C3)NC(=O)[C@H](CC(C)C)NC(=O)[C@H](Cc3ccccc3)NC(=O)[C@H](C)NC(=O)[C@H](C)NC(=O)[C@H](Cc3cccc(C(=O)O)c3)NC(=O)[C@H](CC(=O)O)NC1=O)NC(=O)[C@H](CC(C)(C)C)NC(=O)[C@H](CC(=O)O)NC2=O (stereo partly drawn) [I-2281, Ac-PL3-Asp-Npg-B5-Asp-3COOHF-Ala-Ala-Phe-Leu-PyrS2-3Thi-BztA-Asn-Ala-Leu-Ala-Leu-Ala-NH2] |  | 
11 | 6.81 | 5.43 | CC(=O)N1CCC[C@]12CC=CCCCC1(CCCC=CCCCOC(=O)N3CC[C@@](C(=O)N[C@@H](Cc4ccsc4)C(=O)N[C@@H](Cc4csc5ccccc45)C(=O)N[C@@H](CC(N)=O)C(=O)N[C@@H](C)C(=O)N[C@@H](CC(C)C)C(=O)N[C@@H](C)C(=O)N[C@@H](CC(C)C)C(=O)N[C@@H](C)C(N)=O)(C3)NC(=O)[C@H](CC(C)C)NC(=O)[C@H](Cc3ccccc3)NC(=O)[C@H](C)NC(=O)[C@H](C)NC(=O)[C@H](Cc3cccc(C(=O)O)c3)NC(=O)[C@H](CC(=O)O)NC1=O)NC(=O)[C@H](CC(C)(C)C)NC(=O)[C@H](CC(=O)O)NC2=O (stereo partly drawn) [I-2282, Ac-PL3-Asp-Npg-B5-Asp-3COOHF-Ala-Ala-Phe-Leu-PyrS2-3Thi-BztA-Asn-Ala-Leu-Ala-Leu-Ala-NH2] |  | 

Row | SMILES | pIC50 [1, 3] | pIC50 [2, 4] | pIC50 ([1]; read-out: beta-Catenin FP IC50; fluorescence polarization) | pIC50 ([2]; read-out: NanoBRET Abs IC50; absolute IC50)
12 | CC(=O)N1CCC[C@]12CC=CCCCC1(CCCC=CCCCOC(=O)N3CC[C@@](C(=O)N[C@@H](Cc4ccsc4)C(=O)N[C@@H](Cc4csc5ccccc45)C(=O)N[C@@H](CC(N)=O)C(=O)N[C@@H](CC(C)C)C(=O)N[C@@H](CC(C)C)C(=O)N[C@@H](CC(C)C)C(N)=O)(C3)NC(=O)[C@H](CC(C)C)NC(=O)[C@H](Cc3ccccc3)NC(=O)[C@H](C)NC(=O)[C@H](C)NC(=O)[C@H](Cc3cccc(C(=O)O)c3)NC(=O)[C@H](CC(=O)O)NC1=O)NC(=O)[C@H](CC(C)(C)C)NC(=O)[C@H](CC(=O)O)NC2=O (stereo partly drawn) [I-2275, Ac-PL3-Asp-Npg-B5-Asp-3COOHF-Ala-Ala-Phe-Leu-PyrS2-3Thi-BztA-Asn-Leu-Leu-Leu-NH2] | 6.93 | 5.46 |  | 
